Data as given in US20230324419A1, “METHOD FOR DIAGNOSING ACTING OF NERVONIC ACID AND USE THEREOF” (BAO FENG BIOTECH (BEIJING) CO., LTD, priority 2020, published 2023).

Tests used:
[1] = Serum lipid content before and after taking acer truncatum bunge seed oil in patients with demyelinating disease; assay type: in vivo, human
Source text: For sample detection, sample pretreatment and ultra-high performance liquid chromatography-mass spectrometry in Example 1 were used. At the same time, standard SM(d17:1/24:1) and Cer(d18:1/24:1(15Z)) were used as reference for detection.

[2] = Changes of serum lipids containing nervonic acid chains after taking acer truncatum bunge seed oil for different days; assay type: in vivo, SD rats; details: for blood levels after taking acer truncatum bunge seed oil compared with before taking: rat blood; for serum lipid content, Day 1 (NA1) / serum lipid content, Day 3 (NA3) / serum lipid content, Day 7 (NA7) / difference in content between the third and the seventh day of administration / content compared with the normal group: rat serum; for serum lipid content, Day 1 (NA1) / serum lipid content, Day 3 (NA3) / serum lipid content, Day 7 (NA7): acer truncatum bunge seed oil group, nervonic acid 0.03 g/kg/d by gavage; for difference in content between the third and the seventh day of administration: day 3 vs day 7; for content compared with the normal group: oil group vs normal control group; for NA7/NA1: ratio of serum content day 7 to day 1
Protocol: The collected serum samples were thawed on ice, 200 µL plasma was extracted with 600 µL pre-cooled isopropanol, vortexed for 1 min, and incubated at room temperature for 10 min. Then the extraction mixture was stored overnight at -20° C., centrifuged at 4000r for 20 min, and the supernatant was transferred to a new centrifuge tube, diluted with isopropanol/acetonitrile/water (2:1:1, v:v:v) to 1:10. The samples were stored at -80° C. before LC-MS analysis. In addition, 10 µL of each extraction mixture was combined to prepare mixed plasma samples.
The mixed plasma samples were analyzed using ACQUITY UPLC(Waters, USA) connected to the Xevo-G2XS High Resolution Time of Flight (QTOF) Mass spectrometer (Waters) with ESI. CQUITY UPLC BEH C18 column (2.1× 100 mm, 1.7 µm, Waters), and mobile phase consisted of 10 mM ammonium formate-0.1% formic acid-acetonitrile (A, 60: 40, v/v) and 10 mM ammonium formate-0.1% formic acid-isopropanol-acetonitrile (B, 90:10, v/v) were used. Pilot trials with 10-, 15-, and 20-minute washout periods were conducted prior to the large-scale study to assess the potential impact of mobile phase composition and flow rate on lipid retention time. In PIM, rich lipid precursor ions and fragments separated in the same order, with similar peak shapes and ionic strengths. […] The flow rate of mobile phase was 0.4 mL/min. The column was initially eluted with 40% B, 43% B in 2 min according to linear gradient, and 50% B within 0.1 min, 54%B in 3.9 minutes according to linear gradient, and 70% B within 0.1 min. In the last part of the gradient, the amount of B increased to 99% in 1.9 minutes. Finally, solution B was returned to 40% within 0.1 min and the column was balanced for 1.9 min before the next sample injection. The lipids were detected by Xevo-G2XS QTOF mass spectrometer with a sample size of 5 µL/time, collection range of m/z50~1200 […], and collection time of 0.2 s/time. The ion source temperature was 120° C., the desolutizing temperature was 600° C., the gas flow rate was 1000 L/h, and nitrogen was used as the flowing gas. The capillary voltage was 2.0 kV(+)/the […] was 1.5 kV(-), and the cone voltage was 30 V. A standard quality determination was carried out using leucine enkephalin and corrected with sodium formate solution. The samples were sorted randomly. A quality control (QC) sample was injected into every 10 samples and analyzed to investigate repeatability of the data.
50 male SD rats aged 5-6 weeks were randomly divided into 2 groups, which were acer truncatum bunge seed oil group (NA group) and normal control group (CK group). After 1 week of adaptive feeding, rats in each group entered into the experiment. Acer truncatum bunge seed oil group was administrated by gavage according to the content of nervonic acid 0.03 g/kg/d, once a day, and blood was collected after 1, 3 and 7 days. The normal control group was fed routinely, and the blood was collected at the same time as the acer truncatum bunge seed oil group for the detection of lipid SM(d17:1/24:1) and Cer(d18:1/24:1(15Z)) with the nervonic acid chain.

[3] = human, once a day for one month; cited from earlier work
[4] = after 1 day of taking the oil, individual patients

Row | serum lipid content relative to before taking acer truncatum bunge seed oil ([1]; after 7-day of taking the oil) [times] | serum lipid content relative to before taking acer truncatum bunge seed oil [1, 4] [times] | blood levels after taking acer truncatum bunge seed oil compared with before taking [2] | serum lipid content, Day 1 (NA1) [2] | serum lipid content, Day 3 (NA3) [2] | serum lipid content, Day 7 (NA7) [2] | difference in content between the third and the seventh day of administration [2] | content compared with the normal group [2] | NA7/NA1 [2] | Compound | test indexes (mind, picture, recognition, association, sence of touch, understanding) compared with the control group [3]
1 | 1.45 | 1.23 | > 1.3 times | 135883.1 | 209352.5 | 172840.3 | no significant difference | increased | 1.3 | CCCCCCCC/C=C\CCCCCCCCCCCCCC(=O)N[C@@H](CO)[C@H](O)/C=C/CCCCCCCCCCCCC [Cer(d18:1/24:1(15Z))] | 
2 |  |  |  |  |  |  |  |  |  | CCCCCCCC/C=C\CCCCCCCCCCCCCC(=O)O [nervonic acid, cis-15-Tetracosenic acid] | significantly improved
3 | 1.22 | 1.15 | more than 1.2 times | 245574.2 | 340912.8 | 291861.8 | no significant difference | increased | 1.2 | SM(d17:1/24:1) | 
